Key:
[1] = Displacement of [3H] batrachotoxinin from rat sodium channel site 2 measured after 60 mins by scintillation counter method
[2] = molecular target: T1, 5-hydroxytryptamine receptor 1A (Homo sapiens, UniProt P08908); assay: Displacement of [3H]OH-DPAT from human recombinant 5-HT1A receptor measured after 60 mins by scintillation counter method
T1 sequence (P08908 whole entry): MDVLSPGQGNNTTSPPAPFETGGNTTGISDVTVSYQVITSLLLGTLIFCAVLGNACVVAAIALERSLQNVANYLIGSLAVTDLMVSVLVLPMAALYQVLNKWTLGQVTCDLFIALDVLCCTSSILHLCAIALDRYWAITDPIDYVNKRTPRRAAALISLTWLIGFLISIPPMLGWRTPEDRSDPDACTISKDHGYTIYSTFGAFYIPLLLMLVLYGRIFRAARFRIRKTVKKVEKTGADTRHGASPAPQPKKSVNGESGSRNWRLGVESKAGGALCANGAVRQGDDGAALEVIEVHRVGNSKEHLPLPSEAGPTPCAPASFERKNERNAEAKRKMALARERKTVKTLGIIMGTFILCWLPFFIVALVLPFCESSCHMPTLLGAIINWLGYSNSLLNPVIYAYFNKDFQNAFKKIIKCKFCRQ

[3] = molecular target: Sodium-dependent serotonin transporter (Homo sapiens, UniProt P31645); assay: Displacement of [3H] imipramine from human recombinant 5-HT transporter measured after 60 mins by scintillation counter method
Sequence of Sodium-dependent serotonin transporter (P31645 whole entry): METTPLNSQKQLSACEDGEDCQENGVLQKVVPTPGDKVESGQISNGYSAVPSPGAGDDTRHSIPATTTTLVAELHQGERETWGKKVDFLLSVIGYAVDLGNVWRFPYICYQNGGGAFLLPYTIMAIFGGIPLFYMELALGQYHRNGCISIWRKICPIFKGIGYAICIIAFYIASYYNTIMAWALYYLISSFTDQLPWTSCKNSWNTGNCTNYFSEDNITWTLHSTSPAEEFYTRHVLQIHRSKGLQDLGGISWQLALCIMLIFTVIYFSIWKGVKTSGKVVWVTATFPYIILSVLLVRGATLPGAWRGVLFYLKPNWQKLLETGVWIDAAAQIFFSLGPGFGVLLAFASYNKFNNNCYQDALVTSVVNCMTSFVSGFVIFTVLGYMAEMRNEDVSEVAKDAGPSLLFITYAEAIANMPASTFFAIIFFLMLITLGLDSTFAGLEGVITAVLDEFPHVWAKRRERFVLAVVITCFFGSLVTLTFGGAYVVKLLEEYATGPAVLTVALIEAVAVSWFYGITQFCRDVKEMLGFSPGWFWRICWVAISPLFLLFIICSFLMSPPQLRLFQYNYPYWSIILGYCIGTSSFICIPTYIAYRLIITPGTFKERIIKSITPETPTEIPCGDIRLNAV

[4] = molecular target: 5-hydroxytryptamine receptor 2A (Homo sapiens, UniProt P28223); assay: Displacement of [3H] ketanserin from human recombinant 5-HT2A receptor measured after 60 mins by scintillation counter method
Sequence of 5-hydroxytryptamine receptor 2A (P28223 whole entry): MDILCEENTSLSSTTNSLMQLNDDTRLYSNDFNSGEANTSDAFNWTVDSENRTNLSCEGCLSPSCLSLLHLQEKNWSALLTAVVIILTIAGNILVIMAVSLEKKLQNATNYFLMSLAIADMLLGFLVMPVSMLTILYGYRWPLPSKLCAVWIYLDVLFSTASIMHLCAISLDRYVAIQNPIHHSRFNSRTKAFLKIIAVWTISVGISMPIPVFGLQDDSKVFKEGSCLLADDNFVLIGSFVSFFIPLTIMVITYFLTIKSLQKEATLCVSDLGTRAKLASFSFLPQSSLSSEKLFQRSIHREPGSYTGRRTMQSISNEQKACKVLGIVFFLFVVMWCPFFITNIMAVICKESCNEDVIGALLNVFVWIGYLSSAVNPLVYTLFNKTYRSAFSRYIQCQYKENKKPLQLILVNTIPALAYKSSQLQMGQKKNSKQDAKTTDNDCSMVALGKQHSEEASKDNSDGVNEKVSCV

Substance-K receptor = molecular target: T2, Substance-K receptor (Homo sapiens, UniProt P21452); assay: Displacement of [125I]NKA from human recombinant NK2 receptor measured after 60 mins by scintillation counter method
T2 sequence (P21452 whole entry): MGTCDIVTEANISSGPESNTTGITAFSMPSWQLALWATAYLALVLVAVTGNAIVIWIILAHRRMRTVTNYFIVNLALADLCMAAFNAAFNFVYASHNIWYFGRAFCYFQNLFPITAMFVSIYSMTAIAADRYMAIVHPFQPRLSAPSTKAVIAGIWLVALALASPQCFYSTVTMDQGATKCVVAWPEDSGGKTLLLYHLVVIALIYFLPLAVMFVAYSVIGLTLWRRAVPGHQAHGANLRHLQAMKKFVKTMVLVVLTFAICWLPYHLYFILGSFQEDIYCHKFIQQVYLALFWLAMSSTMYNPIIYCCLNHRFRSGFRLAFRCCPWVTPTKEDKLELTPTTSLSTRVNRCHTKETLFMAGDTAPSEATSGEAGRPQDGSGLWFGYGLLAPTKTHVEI

[5] = molecular target: 5-hydroxytryptamine receptor 2B (Homo sapiens, UniProt P41595); assay: Antagonist activity at human recombinant 5-HT2B receptor in CHOK1 cells measured after 30 mins by HTRF assay; type: cell-based
Sequence of 5-hydroxytryptamine receptor 2B (P41595 whole entry): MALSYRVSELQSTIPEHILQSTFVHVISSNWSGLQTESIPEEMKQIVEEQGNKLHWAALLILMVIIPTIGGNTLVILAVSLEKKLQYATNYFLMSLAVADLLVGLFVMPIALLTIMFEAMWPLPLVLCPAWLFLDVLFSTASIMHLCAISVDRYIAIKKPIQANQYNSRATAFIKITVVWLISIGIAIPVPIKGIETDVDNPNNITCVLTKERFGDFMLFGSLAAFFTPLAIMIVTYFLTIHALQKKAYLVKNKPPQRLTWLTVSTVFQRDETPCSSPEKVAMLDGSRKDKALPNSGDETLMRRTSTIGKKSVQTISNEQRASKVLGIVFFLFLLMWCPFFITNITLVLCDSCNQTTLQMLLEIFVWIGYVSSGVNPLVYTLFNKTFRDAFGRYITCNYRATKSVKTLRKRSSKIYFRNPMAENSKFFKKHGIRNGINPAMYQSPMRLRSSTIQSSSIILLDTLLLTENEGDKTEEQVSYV

| Compound | IC50 [1] [µM] | Ki [1] [µM] | IC50 [2] [µM] | Ki [2] [µM] | IC50 [3] [µM] | Ki [3] [µM] | IC50 [4] [µM] | Ki [4] [µM] | IC50 (Substance-K receptor) [µM] | Ki (Substance-K receptor) [µM] | IC50 [5] [µM] | Ki [5] [µM] |
| --- | --- | --- | --- | --- | --- | --- | --- | --- | --- | --- | --- | --- |
| COc1ccc(C(=O)O[C@H]2CC[C@@]3(C)[C@@H]4CC[C@H]5[C@]6(O)C[C@H](O)[C@@]7(O)[C@@H](CN8C[C@@H](C)CC[C@H]8[C@@]7(C)O)[C@]6(O)C[C@@]53O[C@]24O)cc1OC [VERATRIDINE] | 8.9 | 8.1 | – | – | – | – | – | – | – | – | – | – |
| CC(C)CCO[C@@H]1[C@H]2OC(C)(C)O[C@H]2[C@H]2COCc3cn(nn3)C[C@H]3O[C@H](CCN(CCc4ccc5ccccc5c4)CC[C@H]1O2)[C@H](OCCC(C)C)[C@H]1OC(C)(C)O[C@H]13 | 0.46 | 0.41 | 0.68 | 0.42 | > 100 | > 100 | 8.7 | 4.7 | 3 | 1.6 | 15 | 8.2 |
| CN1C[C@@H](NS(=O)(=O)N(C)C)C[C@@H]2c3cccc4c3c(cn4C)C[C@H]21 [MESULERGINE] | – | – | – | – | – | – | – | – | – | – | 0.0052 | 0.0028 |

— ChEMBL document CHEMBL4393714, “Multi-targeting protein-protein interaction inhibitors: Evolution of macrocyclic ligands with embedded carbohydrates (MECs) to improve selectivity” (Eur J Med Chem, 2019)
